Source: ChEMBL document CHEMBL3994601, “Polyacetylenic Oleanane-Type Triterpene Saponins from the Roots of Panax japonicus” (J Nat Prod, 2016)
Active and inactive are the calls of the source. No cut-off for these calls is given here.

Legend:
[1] = test system: PC-12; test: Neuroprotective activity against hydrogen peroxide-induced cell damage in rat PC12 cells assessed as increase in cell viability at 3.125 to 50 uM preincubated with compound followed by H2O2 challenge by MTT assay; format: functional, cell-based
[2] = test system: VSMC; test: Antiproliferative activity against angiotensin 2-stimulated Wistar rat VSMC after 48 hrs by MTT method; format: functional, cell-based

Compound	Activity [1]	growth inhibition (GI) [2]
CCCCOC(=O)[C@H]1O[C@@H](O[C@H]2CC[C@]3(C)[C@H]4CC=C5[C@@H]6CC(C)(C)CC[C@]6(C(=O)O)CC[C@@]5(C)[C@]4(C)CC[C@H]3C2(C)C)[C@H](O[C@@H]2O[C@H](CO)[C@@H](O)[C@H](O)[C@H]2O)[C@@H](O)[C@@H]1O	Active	
COC(=O)[C@H]1O[C@@H](O[C@H]2CC[C@]3(C)[C@H]4CC=C5[C@@H]6CC(C)(C)CC[C@]6(C(=O)O[C@@H]6O[C@H](CO)[C@@H](O)[C@H](O)[C@H]6O)CC[C@@]5(C)[C@]4(C)CC[C@H]3C2(C)C)[C@H](O)[C@@H](O)[C@@H]1O		Dose-dependent effect
C=C[C@@H](O)C#CC#CC[C@@H](O)[C@@H](CCCCCCC)OC(=O)[C@H]1O[C@@H](O[C@H]2CC[C@]3(C)[C@H]4CC=C5[C@@H]6CC(C)(C)CC[C@]6(C(=O)O)CC[C@@]5(C)[C@]4(C)CC[C@H]3C2(C)C)[C@H](O[C@@H]2O[C@H](CO)[C@@H](O)[C@H](O)[C@H]2O)[C@@H](O)[C@@H]1O	Active	
CCCCOC(=O)[C@H]1O[C@@H](O[C@H]2CC[C@]3(C)[C@H]4CC=C5[C@@H]6CC(C)(C)CC[C@]6(C(=O)O[C@@H]6O[C@H](CO)[C@@H](O)[C@H](O)[C@H]6O)CC[C@@]5(C)[C@]4(C)CC[C@H]3C2(C)C)[C@H](O)[C@@H](O)[C@@H]1O[C@@H]1O[C@@H](CO)[C@H](O)[C@H]1O	Active	
